Here are results for twelve compounds from ChEMBL document CHEMBL3856235, “Characterization of 3,3-dimethyl substituted N-aryl piperidines as potent microsomal prostaglandin E synthase-1 inhibitors” (Bioorg Med Chem Lett, 2016).

SMILES strings stand for the structures. Where only a bound is given, the exact number is not on record here.

The target of series [1] is T1, Prostaglandin E synthase (Homo sapiens, UniProt O14684).
T1 sequence (O14684 whole entry): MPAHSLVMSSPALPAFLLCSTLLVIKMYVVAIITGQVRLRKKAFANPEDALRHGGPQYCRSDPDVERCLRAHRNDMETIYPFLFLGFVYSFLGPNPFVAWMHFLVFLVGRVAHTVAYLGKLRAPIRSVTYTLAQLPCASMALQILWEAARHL
Kind of series: Inhibition of human mPGES-1 expressed in 293E cells assessed as reduction in conversion of PGH2 to PGE2 after 1.5 min by LC/MS analysis. Format: cell-based.

For series [2], the target named is T1, Prostaglandin E synthase. Kind of series: Inhibition of mPGES-1 in human A549 cells assessed as reduction in recombinant human interleukin-1 beta-induced PGE2 production preincubated for 30 mins measured after 18 hrs by ELISA. Format: cell-based.
In series [3] the target is T1, Prostaglandin E synthase.
Description: Inhibition of mPGES-1 in human whole blood assessed as reduction in LPS-induced PGE2 production preincubated for 30 mins followed by LPS stimulation for 20 to 24 hrs by LC/MS/MS analysis
Series [4] is described as follows: Time at which plasma concentration remains above human whole blood IC50 level in human at 200 mg, po. It is filed as ADME.
Series [5] addresses T1, Prostaglandin E synthase. The experiment in a line: Inhibition of mPGES-1 (unknown origin).
Series [6] in a line: Drug metabolism in rat liver microsomes at 4 uM. It is filed as ADME. Conditions: read-out: Drug metabolism.
The nature of series [7]: Drug metabolism in dog liver microsomes at 4 uM. It is filed as ADME, Canis lupus familiaris. Conditions: read-out: Drug metabolism.
Series [8] is described as follows: Drug metabolism in human liver microsomes at 4 uM. Format: ADME. To be noted: read-out: Drug metabolism.
In another series the target is CYP2C9 (Homo sapiens, UniProt P11712). The experiment in a line: Inhibition of CYP2C9 in human hepatic microsomes assessed as reduction in probe substrate metabolism at 10 uM. To be noted: liver microsomes. It is filed as ADME.
CYP2C9, sequence (P11712 whole entry): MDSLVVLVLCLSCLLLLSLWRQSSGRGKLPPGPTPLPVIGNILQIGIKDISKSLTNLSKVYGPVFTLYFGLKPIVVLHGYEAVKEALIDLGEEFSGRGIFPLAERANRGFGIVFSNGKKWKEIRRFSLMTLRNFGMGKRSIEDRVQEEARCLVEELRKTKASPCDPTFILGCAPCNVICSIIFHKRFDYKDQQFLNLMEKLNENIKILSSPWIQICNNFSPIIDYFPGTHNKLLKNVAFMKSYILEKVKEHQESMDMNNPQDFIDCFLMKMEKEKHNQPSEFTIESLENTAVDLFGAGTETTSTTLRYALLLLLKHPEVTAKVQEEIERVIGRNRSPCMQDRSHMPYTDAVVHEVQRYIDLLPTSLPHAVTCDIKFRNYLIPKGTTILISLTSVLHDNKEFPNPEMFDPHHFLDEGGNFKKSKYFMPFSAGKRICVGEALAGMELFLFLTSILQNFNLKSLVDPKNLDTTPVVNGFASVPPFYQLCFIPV
The target of a further series is CYP2D6 (Homo sapiens, UniProt P10635). The experiment in a line: Inhibition of CYP2D6 in human hepatic microsomes assessed as reduction in probe substrate metabolism at 10 uM. It is filed as ADME. To be noted: liver microsomes.
CYP2D6, sequence (P10635 whole entry): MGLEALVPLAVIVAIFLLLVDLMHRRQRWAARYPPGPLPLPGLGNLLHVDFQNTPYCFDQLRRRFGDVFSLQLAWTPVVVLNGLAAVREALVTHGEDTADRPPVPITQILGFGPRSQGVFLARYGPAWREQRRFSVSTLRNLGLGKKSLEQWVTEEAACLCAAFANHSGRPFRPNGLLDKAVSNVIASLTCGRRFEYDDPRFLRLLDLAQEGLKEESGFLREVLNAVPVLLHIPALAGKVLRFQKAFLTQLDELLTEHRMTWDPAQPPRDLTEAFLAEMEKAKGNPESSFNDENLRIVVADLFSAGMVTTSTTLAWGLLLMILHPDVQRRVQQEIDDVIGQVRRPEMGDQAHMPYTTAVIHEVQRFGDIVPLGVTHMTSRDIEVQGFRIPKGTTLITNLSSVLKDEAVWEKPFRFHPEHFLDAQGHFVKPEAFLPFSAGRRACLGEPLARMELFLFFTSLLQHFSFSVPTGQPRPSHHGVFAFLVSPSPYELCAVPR
The target of series [9] is T2, CYP3A4 (Homo sapiens, UniProt P08684). The experiment in a line: Inhibition of CYP3A4 in human hepatic microsomes assessed as reduction in probe substrate metabolism at 10 uM. It is filed as ADME. Conditions: liver microsomes.
T2 sequence (P08684 whole entry): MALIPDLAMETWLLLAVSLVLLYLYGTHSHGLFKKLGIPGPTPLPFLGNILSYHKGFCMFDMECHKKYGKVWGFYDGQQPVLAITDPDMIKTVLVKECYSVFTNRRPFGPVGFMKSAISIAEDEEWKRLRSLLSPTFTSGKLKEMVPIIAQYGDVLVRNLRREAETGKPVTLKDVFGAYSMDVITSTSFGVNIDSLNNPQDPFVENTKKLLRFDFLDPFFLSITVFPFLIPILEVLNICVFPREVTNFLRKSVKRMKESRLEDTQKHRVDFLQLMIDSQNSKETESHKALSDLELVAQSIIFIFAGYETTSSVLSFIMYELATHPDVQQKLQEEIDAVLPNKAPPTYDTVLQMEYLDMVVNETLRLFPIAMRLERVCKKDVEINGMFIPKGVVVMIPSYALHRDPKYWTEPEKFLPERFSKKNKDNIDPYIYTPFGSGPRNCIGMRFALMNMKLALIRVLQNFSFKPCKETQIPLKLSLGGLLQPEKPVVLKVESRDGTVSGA
Series [10] in a line: Clearance in Beagle dog at 1 mg/kg, iv. It is filed as ADME, organism-based, Canis lupus familiaris. Conditions: in vivo.
Series [11] in a line: Volume of distribution at steady state in Beagle dog at 1 mg/kg, iv. Format: ADME, organism-based, Canis lupus familiaris. Conditions: in vivo, read-out: Vdss.
The nature of series [12]: Oral bioavailability in Beagle dog at 15 mg/kg. Conditions: in vivo. It is filed as ADME, organism-based, Canis lupus familiaris.
A short description of series [13]: Time at which plasma concentration remains above dog whole blood IC50 level in Beagle dog at 3 mg/kg, po. To be noted: in vivo. Format: ADME, organism-based, Canis lupus familiaris.
Series [14] is described as follows: Inhibition of rat mPGES-1.
The target in series [15] is T3, Prostaglandin E synthase (Canis lupus familiaris, UniProt A0SYQ0).
T3 sequence (A0SYQ0 whole entry): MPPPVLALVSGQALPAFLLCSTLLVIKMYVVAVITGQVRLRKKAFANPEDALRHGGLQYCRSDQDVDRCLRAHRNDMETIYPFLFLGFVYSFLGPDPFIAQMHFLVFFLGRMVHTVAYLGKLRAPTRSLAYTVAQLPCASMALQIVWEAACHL
Kind of series: Inhibition of dog mPGES-1.

In series [16] the target is T3, Prostaglandin E synthase. The experiment in a line: Inhibition of mPGES-1 in dog whole blood. Format: tissue-based.
Series [17] is described as follows: Clearance in rat at 1 mg/kg, iv. Conditions: in vivo. It is filed as ADME, organism-based.
Series [18] can be described thus: Half life in rat at 1 mg/kg, iv. It is filed as ADME, organism-based. To be noted: in vivo.
Series [19] can be described thus: Volume of distribution at steady state in rat at 1 mg/kg, iv. Format: ADME, organism-based. Conditions: in vivo, read-out: Vdss.
The nature of series [20]: Cmax in rat at 5 mg/kg, po. Format: ADME, organism-based. Also noted: dose 5 mg/kg, route oral. To be noted: in vivo.
Series [21] can be described thus: Oral bioavailability in rat at 5 mg/kg. It is filed as ADME, organism-based. Conditions: in vivo.
Series [22] has as its target T2, CYP3A4. Kind of series: Time dependent inhibition of CYP3A4 in human hepatic microsomes assessed as reduction in probe substrate metabolism at 10 uM. Format: ADME. To be noted: liver microsomes, read-out: TDI.

With `CC1(C)CN(c2ccc(C(F)(F)F)cc2)CC[C@H]1C(=O)N[C@H]1CCC[C@H](CO)C1`, the half-maximal inhibitory concentration (IC50) on Prostaglandin E synthase [1] was 504 nM; at Prostaglandin E synthase [2], 4500 nM.

Consider `CC1(C)CN(c2ccc3cccc(Cl)c3n2)CC[C@H]1C(=O)N[C@H]1CC[C@@H](CO)CC1`, for which the figures for the half-maximal inhibitory concentration (IC50) on Prostaglandin E synthase [1] and on Prostaglandin E synthase [2] were 3720 nM and greater than 10000 nM, respectively.

Regarding `CC1(C)CN(c2ccc(C(F)(F)F)cc2)CC[C@@H]1C(=O)N[C@H]1CCC[C@H](CO)C1`, the values for the IC50 on Prostaglandin E synthase [1], at Prostaglandin E synthase [2] and on Prostaglandin E synthase [3] were 3 nM, 11 nM and 5 nM, respectively.

Consider `Cc1ccc(-c2cc(C(F)(F)F)nn2-c2ccc(S(N)(=O)=O)cc2)cc1` [CELECOXIB], for which the Time in [4] fell in the range of 8 to 12 h.

Regarding `Cc1cc2nc(N3CCC(C(=O)NC4CCCC4)CC3)n(-c3ccc(F)c(C)c3)c2cc1C`, the IC50 on Prostaglandin E synthase [5] is 25 nM.

As for `Cc1cccc2ccc(N3CC[C@H](C(=O)N[C@H]4CCOC4)C(C)(C)C3)nc12`, the IC50 is 6 nM on Prostaglandin E synthase [1], 23 nM on Prostaglandin E synthase [2] and 51 nM on Prostaglandin E synthase [3].

On to `CC1(C)CN(c2ccc3cccc(Cl)c3n2)CC[C@@H]1C(=O)N[C@H]1CC[C@@H](CO)CC1`, for which the IC50 at Prostaglandin E synthase [1] amounted to 4 nM; on Prostaglandin E synthase [2], 30 nM; on Prostaglandin E synthase [3], 23 nM.

For the compound `Cc1cccc2ccc(N3CC[C@H](C(=O)N[C@H]4CCO[C@H](CO)C4)C(C)(C)C3)nc12`, the concentration for half-maximal inhibition (IC50) at Prostaglandin E synthase [1] is 2 nM; at Prostaglandin E synthase [2] it was 5 nM; in [14], 7870 nM; on Prostaglandin E synthase [15] it was 11 nM; on Prostaglandin E synthase [16], 23 to 28 nM; on Prostaglandin E synthase [3], 7 nM. The metabolised at 4 µM in series [6] worked out at 16%; in [7], 13%; in series [8], 20%. Moreover, the inhibition at 10 µM on CYP2C9 came to 15%; on CYP2D6 it was 0%; on CYP3A4 [9], 10%; at CYP3A4 [22], 39%. Moreover, the clearance came out at 3.62 mL/min/kg in series [10] and 14 mL/min/kg in series [17]. Moreover, the Vd in series [11] was found to be 1.6 L/kg; in series [19], 2.3 L/kg. For the same compound, the bioavailability in series [12] was determined as 74%; in [21] it was 100%. This compound registered a Time in [13] of 24 h. Moreover, the half-life in series [18] was 2.3 h. In [20], this compound yielded a Cmax of 2050 nM.

`Cc1cccc2ccc(N3CC[C@H](C(=O)N[C@H]4CCC[C@H](CO)C4)C(C)(C)C3)nc12`: the IC50 at Prostaglandin E synthase [1] turned out to be 1 nM; at Prostaglandin E synthase [2] it was 3 nM; at Prostaglandin E synthase [3], 1 nM. Moreover, the metabolised at 4 µM in series [6] worked out at 73%; in [7], 57%; in series [8], 50%. Moreover, the inhibition at 10 µM on CYP2C9 was 64%; at CYP2D6, 0%; at CYP3A4 [9], 43%; at CYP3A4 [22], 82%. Moreover, the clearance in series [17] worked out at 34 mL/min/kg. This compound showed a half-life in series [18] of 0.6 h. For the same compound, the Vd in series [19] stood at 1.3 L/kg. This compound showed a Cmax in series [20] of 1430 nM. Besides, the bioavailability in [21] is 30%.

With `Cc1cccc2ccc(N3CC[C@H](C(=O)N[C@H]4CC[C@@H](CO)CC4)C(C)(C)C3)nc12`, the 50% inhibitory concentration (IC50) came to 1 nM at Prostaglandin E synthase [1], 2 nM at Prostaglandin E synthase [2] and 2 nM against Prostaglandin E synthase [3]. Besides, the metabolised at 4 µM in series [6] turned out to be 64%; in [7], 60%; in series [8], 46%. The inhibition at 10 µM at CYP2C9 was 54%; at CYP2D6, 4%; on CYP3A4 [9], 35%; at CYP3A4 [22] it was 75%. In series [17], this compound registered a clearance of 21 mL/min/kg. The compound also gave a half-life in series [18] of 2.6 h. Besides, the Vd in [19] turned out to be 1.4 L/kg. This compound had a Cmax in series [20] of 1450 nM. This compound registered a bioavailability in series [21] of 54%.

Take `Cc1cccc2ccc(N3CC[C@H](C(=O)N[C@H](C)C(C)C)C(C)(C)C3)nc12`: the values for the half-inhibitory concentration (IC50) on Prostaglandin E synthase [1], at Prostaglandin E synthase [2] and against Prostaglandin E synthase [3] were 12 nM, 89 nM and 77 nM, respectively.

With `Cc1cccc2ccc(N3CC[C@H](C(=O)N[C@H]4CCCOC4)C(C)(C)C3)nc12`, the IC50 at Prostaglandin E synthase [1] is 7 nM; at Prostaglandin E synthase [2], 72 nM; against Prostaglandin E synthase [3], 36 nM.
